Test results from US9206103B2, “Materials and methods for reduction of protein tau and treatment of neurodegenerative diseases” (UNIVERSITY OF SOUTH FLORIDA, priority 2010, dated 2015).

Legend:
tau [1] = assay: Western blot of tau levels in HeLa cells stably overexpressing tau (HeLa-C3); assay type: cell-based; settings: for tau levels, effect of chirality: HeLa-C3, similar concentrations of enriched and racemic myricanol
Method: (§1) HeLa cells stably expressing VS-tagged 4R0N tau were maintained under G418 selection in Opti-Mem plus 10% FBS (complete media; Invitrogen) as previously described (Jinwal et al. (2009) J Neurosci 29, 12079-12088). IMR32 cells were maintained in Opti-mem plus 10% FBS and 2% 200 mM L-glutamine (Cellgro, Mediatech, Inc, Herndon, Va.). IMR32, M17, and H4 cells were maintained in Opti-mem plus 10% FBS and 2% 200 mM L-glutamine (Cellgro, Mediatech, Inc., Herndon, Va.). All cells were treated as indicated and harvested as previously described (Jinwal et al. (2009) J Neurosci 29, 12079-12088).
(§2) Protein levels were determined by using the Peirce BCA kit. Western blotting was performed by running SDS-PAGE, followed by transfer onto Immobilon-P (Millipore), as previously described (Dickey et al. (2005) Curr Alzheimer Res 2, 231-23; Koren et al. (2010) J. Bio. Chem. 285, 2498-2505).
(§3) To assess the effects of the aqueous bayberry extract on overexpressed and endogenous tau levels, a HeLa cell line stably transfected with tau (HeLa-C3) and a human IMR32 cell line derived from hippocampal neurons were treated with the bayberry extract at indicated doses for four hours. The hippocampus is the region first affected by tau deposition in Alzheimer's disease.
Briefly, the EtOH extract was subjected to acid hydrolysis to enrich the aglycone component of the extract, and was then fractionated via medium pressure liquid chromatography (MPLC). The bayberry crude extract was separated into 8 UV-active fractions by MPLC) (FIG. 4A). The MPLC extraction method was designed to identify UV active flavonoids such as myricetin).
To investigate the effect of chirality on anti-tau activity, HaLa-C3 cells were treated with the isolated (+)-αR,11S-myricanol (86% ee) and commercially available “racemic” myricanol (actually 9% ee) at the indicated concentrations.

[2] = Lactate dehydrogenase release assay for myricanol; assay type: cell-based
tau [3] = assay: Western blot of endogenous tau levels in IMR32 cells; assay type: cell-based, human; settings: IMR32 hippocampus-derived cells
Method: as §1, §2, §3

tau [4] = assay: Ex-vivo murine brain slice cultures, Western blot of tau levels; assay type: cell-based, mice; settings: murine brain slices
Method: HeLa cells stably overexpressing tau (HeLa-C3; FIG. 2A) and IMR32 cells with endogenous tau levels (FIG. 2B) were treated for 4 hrs with aqueous bayberry extract at 0, 21, 35, 70 μg/ml (0, 0.3, 0.5, and 1.0% by volume). […] Tau levels are shown as a percentage of vehicle-treated cells ±SD. […] Treatments on whole brain murine slice cultures were performed in duplicate at doses of 0, 9, 18, 35, 70, 105, 140 μg/ml (0, 0.125, 0.25, 0.5, 1.0, and 2.0% by volume) of the bayberry extract. Each point in the graph (FIG. 2E) to the right represents the average tau reductions (n=8 slices) for all four mice at the given doses relative to the average vehicle ±SD. *p<0.05 by student's t test.
4 non-transgenic 5-month-old mice were decapitated and their brains were quickly removed. 400 μm coronal sections were made using a vibratome as previously described (Jinwal et al. J. Neurosci. 2009, 29, 12079-12088; Qiu et al. J. Neurosci. 2006, 26, 12943-12955; Mirnikjoo et al. J. Biol. Chem. 2001, 276, 10888-10896. NP100572Z). […]

Hsp70 ATPase = settings: previously shown; cited from earlier work

With `COc1c2cc(c(O)c1OC)CCCC[C@@H](O)CCc1ccc(O)c-2c1` [myricanol] the “tau reduction after pre-treatment with autophagy inhibitor” value (tau [1]; HeLa-C3, NH4Cl 20 mM pre-treatment) was “abrogated tau reductions”, the “tau reduction after pre-treatment with proteasomal inhibitor” value (tau [1]; HeLa-C3, epoxomicin 0.3 μM pre-treatment) was “abrogated tau reductions” and the “reduction of intracellular tau levels compared with myricetin” value (tau [1]; comparison stated in the description) was “more effectively reduces intracellular tau levels than myricetin”. For the same compound, the “toxicity by lactate dehydrogenase release” value [2] was “little toxicity”.

For `COc1c2cc(c(O)c1OC)CCCC[C@H](O)CCc1ccc(O)c-2c1` [(+)-αR,11S-myricanol], the “reduction of tau levels” value (tau [3]) was “potently reduced tau levels”, the EC50 (tau [1]; HeLa-C3, Western blot, read-out: EC50 for reduction of tau levels) was 35 µM and the “reduction of tau levels” value (tau [1]; HeLa-C3, overexpressed tau) was “potently reduced tau levels”. The “tau levels, effect of chirality” value (tau [1]) was “reduced significantly” and the “reduction of tau levels” value (tau [4]) was “potently reduced tau levels”.

In the case of `O=c1c(O)c(-c2cc(O)c(O)c(O)c2)oc2cc(O)cc(O)c12` [myricetin], the “inhibition of Hsp70 ATPase activity” value (Hsp70 ATPase) is given as “inhibitor of Hsp70 ATPase activity”.

With `COc1c2cc(c(O)c1OC)CCCC[C@@H](O)CCc1ccc(O)c-2c1` (racemic) [(+/−)-myricanol, reference compound] the “tau levels, effect of chirality” value (tau [1]) was “no activity”.
